Patent US20100068812A1, “METHOD FOR INCREASING TRANSFORMATION EFFICIENCY IN PLANTS, COMPRISING COCULTURE STEP FOR CULTURING PLANT TISSUE WITH COCULTURE MEDIUM CONTAINING 3, 6-DICHLORO-O-ANISIC ACID” (Japan Tobacco Inc., priority 2007, published 2010)

Columns and labels:
[1] = tested on: immature embryos (variety: A188); test: Effect of dicamba and 2,4-D in coculture medium on transformation efficiency (drop inoculation); type: cell-based, Maize; details: for transformation efficiency: auxin 1.5 mg/l in coculture medium, Agrobacterium LBA4404 (U0009B) with hydroxyapatite, 25 to 26 immature embryos per test
Text: (§1) Transformation efficiency can be determined by any calculation method commonly used by those skilled in the art, for example, can be determined from a value calculated by dividing the number of transformed plants by the number of Agrobacterium-inoculated explants.
FIG. 3 is a graph showing the effect of auxin type in a coculture medium on transformation efficiency in maize (drop inoculation). 25 to 26 immature embryos were provided for each test. The vertical axis represents the transformation efficiency (calculated by dividing the number of GUS-positive plants obtained in each test by the number of inoculated immature embryos), while the horizontal axis represents the type of auxin contained in the coculture medium. The auxin concentration in the coculture medium was set to 1.5 mg/l for each test.
The vector U0009B shown in FIG. 2 and SEQ ID NO: 1 was constructed by adding necessary elements to a vector having pSB11 (Non-patent Publication No. 27) as a skeletal structure. An inoculum (1 ml) of Agrobacterium strain LBA4404 (U0009B) prepared in the same manner as shown in Example 1 was supplemented with about 80 mg of hydroxyapatite (Bio-Rad). […] A control medium was prepared to contain 5 μM AgNO3 and 5 μM CuSO4 in LS-AS medium (solidified with 8 g/l agarose). After shaking with a vortex mixer to ensure a uniformly dispersed state of hydroxyapatite in the inoculum, 5 μl of the inoculum was added dropwise onto the immature embryos. After the inoculum added dropwise was dried, the immature embryos were transferred to another site on the same medium. After the culture container was sealed, coculture was performed in the dark at 25° C. for 7 days. The cocultured immature embryos were cultured in the same manner as shown in Example 1 to obtain regenerated plants, along with examining GUS gene expression in leaves of the regenerated plants.

[2] = tested on: Maize (variety: A188) immature embryos; test: Effect of auxin type in coculture medium on Agrobacterium-mediated transformation efficiency (GUS-positive plants / inoculated immature embryos); type: cell-based; details: for transformation efficiency / transformation efficiency relative to control (2,4-D), in words: auxin 1.5 mg/l in coculture medium, Agrobacterium LBA4404 (pSB131); for transformation efficiency: coculture in the dark at 25° C. for 7 days, 33 to 35 immature embryos per test
Text: as §1
FIG. 1 is a graph showing the effect of auxin type in a coculture medium on transformation efficiency in maize. 33 to 35 immature embryos were provided for each test. The vertical axis represents the transformation efficiency (calculated by dividing the number of GUS-positive plants obtained in each test by the number of inoculated immature embryos), while the horizontal axis represents the type of auxin contained in the coculture medium. The auxin concentration in the coculture medium was set to 1.5 mg/l for each test.
Maize (variety: A188) immature embryos (1.0 to 1.5 mm in size) at 7 to 14 days after pollination were aseptically collected and washed once with LS-inf liquid medium (Non-patent Publication No. 11), followed by pretreatment (thermal treatment at 46° C. for 3 minutes and centrifugation at 15,000 rpm for 10 minutes) to increase gene transfer efficiency. In LS-inf liquid medium containing 100 μM acetosyringone, Agrobacterium strain LBA4404 (pSB131) (Non-patent Publication No. 11) was suspended at about 1.0×10^9 cfu/ml to prepare an inoculum. The thermally-treated and centrifuged immature embryos were mixed with the inoculum, vortexed for 30 seconds, and then allowed to stand for 5 minutes at room temperature. The Agrobacterium-inoculated immature embryos were placed, with their embryonic discs facing up, onto a coculture medium containing 2,4,5-T (2,4,5-trichlorophenoxyacetic acid), picloram (4-amino-3,5,6-trichloropicolinic acid), TIBA (2,3,5-triiodobenzoic acid) or dicamba at a concentration of 1.5 mg/l in IS-AS medium (Non-patent Publication No. 11; solidified with 8 g/l agarose) which had been prepared to exclude 2,4-D and contain 5 μM AgNO3 and 5 μM CuSO4. A control medium was prepared to contain 5 μM AgNO3 and 5 μM CuSO4 in LS-AS medium (solidified with 8 g/l agarose).
The immature embryos cultured in the dark at 25° C. for 7 days were placed onto LSD1.5 medium (Non-patent Publication No. 11) containing 5 μM AgNO3, 5 mg/l phosphinothricin (PPT), 250 mg/l carbenicillin and 100 mg/l cefotaxime, and then cultured in the dark at 25° C. for 10 days. The immature embryos were transferred to the same medium, except that the PPT concentration was set to 10 mg/l, and cultured under the same conditions for 3 weeks. The grown calli were excised with a surgical knife, placed onto a fresh medium of the same composition, and cultured under the same conditions for 3 weeks. The grown calli were excised, placed onto LSZ medium (Non-patent Publication No. 11) containing 10 μM CuSO4 and 5 mg/l PPT, and cultured in the light at 25° C. for about 2 weeks. Along with determining the number of immature embryos which regenerated into whole plants, leaves of the regenerated plants were partially excised, immersed in 0.1 M phosphate buffer (pH 6.8) containing 0.1% Triton X-100 and allowed to stand at 37° C. for 1 hour. The phosphate buffer was removed and then replaced with another phosphate buffer containing 1.0 mM 5-bromo-4-chloro-3-indolyl-β-D-glucuronic acid (X-gluc) and 20% methanol. After incubation at 37° C. for 24 hours, GUS gene expression was examined.

maize = details: 15 μM dicamba vs 6.75 μM 2,4-D; media also differ in other components (silver nitrate); cited from earlier work
maize immature embryos = details: 15 μM dicamba vs 4.5 μM 2,4-D; cited from earlier work

COc1c(Cl)ccc(Cl)c1C(=O)O [dicamba, 3,6-dichloro-o-anisic acid]
transformation efficiency [1]: 28.0%
increase in the transformation efficiency compared to the conventional method using 2,4-D ([1]; dicamba 1.5 mg/l, 28.0/11.5): 2.43 fold
transformation efficiency [2]: 27.3%
increase in the transformation efficiency compared to the conventional method using 2,4-D ([2]; dicamba 1.5 mg/l in coculture medium, 27.3/20.6): 1.33 fold
transformation efficiency, dicamba medium vs 2,4-D medium (maize): higher
formation rate of calli having regeneration ability, compared to 2,4-D (maize immature embryos): increased

O=C(O)c1cc(I)cc(I)c1I [TIBA, 2,3,5-triiodobenzoic acid]
transformation efficiency relative to control (2,4-D), in words [2]: produced no transformed plant

Nc1c(Cl)c(Cl)nc(C(=O)O)c1Cl [picloram, 4-amino-3,5,6-trichloropicolinic acid]
transformation efficiency relative to control (2,4-D), in words [2]: lower than that of the control

O=C(O)COc1ccc(Cl)cc1Cl [2,4-D, 2,4-dichlorophenoxyacetic acid]
transformation efficiency [1]: 11.5%
transformation efficiency [2]: 20.6%

O=C(O)COc1cc(Cl)c(Cl)cc1Cl [2,4,5-T, 2,4,5-trichlorophenoxyacetic acid]
transformation efficiency relative to control (2,4-D), in words [2]: lower than that of the control
